The source of these data is patent US6455755B2, “Leukotriene B4 receptor transgenic mice” (Brigham and Women's Hospital, priority 1999, dated 2002).

In test [1] the target is T1, BLTR (Homo sapiens, UniProt Q15722). The test can be described thus: Intracellular Ca2+ mobilization in HEK293 cells transfected with pGL-CD11b-hBLTR. Format: cell-based. Details: expressed in transfected cells; host or cells: HEK293 (transient transfection with pGL-CD11b-hBLTR, SuperFect). To be noted: LTB4 100 nM; transiently transfected HEK293 cells. Background: A change in cytosolic calcium serves as a functional read-out for many receptors and channels.
T1 sequence (Q15722 whole entry): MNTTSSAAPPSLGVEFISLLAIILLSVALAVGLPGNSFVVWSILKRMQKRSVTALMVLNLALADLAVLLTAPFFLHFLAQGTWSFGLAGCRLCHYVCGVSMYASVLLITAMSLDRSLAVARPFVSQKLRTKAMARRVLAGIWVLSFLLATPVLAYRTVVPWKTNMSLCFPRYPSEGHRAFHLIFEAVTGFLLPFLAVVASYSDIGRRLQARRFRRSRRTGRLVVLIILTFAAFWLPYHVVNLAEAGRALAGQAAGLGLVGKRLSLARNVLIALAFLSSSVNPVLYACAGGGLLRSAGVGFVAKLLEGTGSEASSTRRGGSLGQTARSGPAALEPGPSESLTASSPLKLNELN

The subject of test [2] is PMN infiltration into ear skin. The test can be described thus: Ear skin inflammation model (topical application, PMN infiltration by MPO). To be noted: for increase in PMN infiltration into skin compared to vehicle control: LTB4 1 μg topical to ear, MPO; for percent inhibition of LTB4-induced PMN infiltration: 10 μg topical 5 min before LTB4 1 μg. In kind it is in vivo, mouse. The protocol: Ear skin inflammation model. hBLTR transgenic and wt mice were anesthetized and 16-phenoxyl-LXA4 (15(S)-16-phenoxy-17,18,19,20-tetranol-LXA4 methyl ester, prepared by total synthesis as in ref. 7 by Prof. N. A. Petasis and colleagues, Dept. of Chemistry, Univ. of Southern California) (10 μg) in 10 μl of acetone was applied to the inner side of right ears. Acetone alone was applied to the left ear as a vehicle control. Five min later, LTB4 (5S, 12R-dihydroxy-6,8,10,14-eicosatetraenoic acid; 1 μg) in 10 μl acetone was applied to both ears. Ear skin punch biopsies were collected for leukocyte MPO activity (Takano, T., Clish, C. B., Gronert, K., Petasis, N. A. and Serhan C. N. 1997. Neutrophil-mediated changes in vascular permeability are inhibited by topical application of aspirin-triggered 15-epi-lipoxin A4 and novel lipoxin B4 stable analogues. J. Clin. Invest. 101: 819-826).

The target of test [3] is T1, BLTR. The test can be described thus: Displacement of specific [3H]-LTB4 binding in HEK293 cells stably transfected with BLTR. Details: expressed in transfected cells. The protocol:
(§1) Cloning and functional expression of hBLTR. Total RNA was isolated from retinoic acid differentiated HL-60 cells using TriZol reagent (GIBCO BRL, Grand Island, N.Y.) and reverse-transcribed for 30 min at 50° C. followed by 40 cycles of polymerase chain reactions (PCR) using Vent DNA polymerase (New England BioLabs, Beverly, Mass.) (98° C. for 1 min, 60° C. for 1 min and 72° C. for 2 min) with specific primers for hBLTR (BLTR-N: 5′[…]-3′ and BLTR-C: 5′[…]-3′) (Fiore, S., Romano, M., Reardon, E. M. and Serhan, C. N. 1993. Induction of functional lipoxin A4 receptors in HL-60 cells. Blood 81: 3395-3403). HBLTR cDNA was inserted into pGL vector (Promega) at HindII-PpuMI site downstream of CD11b promoter. HEK293 cells were transfected with this pGL-CD11b-hBLTR construct using SuperFect reagent (Qiagen, Chatsworth, Calif.). Ligand binding and intracellular Ca^2+ release were carried out as in refs. (Yokomizo, T., Izumi, T., Chang, K., Takuwa, Y. and Shimizu, T. 1997. A G-protein-coupled receptor for leukotriene B4 that mediates chemotaxis. Nature 387: 620-624) and (Ng, C. F., Sun, F. F., Taylor, B. M., Wolin, M. S. and Wong, P. Y. 1991. Functional properties of guinea pig eosinophil leukotriene B4receptors. J. Immunol. 147: 3096-3103), respectively. […]

Test [4] relates to HEK293 cells with BLTR and ALXR (stable transfectants). The test can be described thus: Cytosensor microphysiometry of extracellular acidification rate (EAR) in HEK293 cells with BLTR and ALXR. In kind it is cell-based, human. The note with it: LXA4 1 μM 20 min prior to LTB4 1 μM. The protocol: as §1
Test [5] deals with PMN infiltration into lungs. The test can be described thus: Hind limb ischemia-reperfusion induced second organ injury (lung PMN infiltration by MPO). Format: in vivo, mouse. The note with it: hBLTR transgenic mice. The source says: Hind limb ischemia-reperfusion induced second organ injury. Mice were anesthetized and ATL analog 15-epi-16-para-fluoro-phenoxy-LXA4 (15(R)-16-para-fluoro-phenoxy-17,18,19,20-tetranol-LXA4 methyl ester), prepared as in (Takano, T., Clish, C. B., Gronert, K., Petasis, N. A. and Serhan C. N. 1997. Neutrophil-mediated changes in vascular permeability are inhibited by topical application of aspirin-triggered 15-epi-lipoxin A4 and novel lipoxin B4 stable analogues. J. Clin. Invest. 101: 819-826) or vehicle was administered intravenously to the transgenic mice. Approximately five minutes later, a tourniquet was placed proximally around each hind limb and secured with a metal clamp (Goldman, G., Welboum, R., Klausner, J. M., Kobzik, L., Valeri, C. R. et al. 1992. Mast cells and leukotrienes mediate neutrophil sequestration and lung edema after remote ischemia in rodents. Surgery 112: 578-586). Vascular occlusion was verified by engorgement and discoloration of the feet. After 3 hours of ischemia, the tourniquets were removed and followed by 3 hours of reperfusion. […] The left lungs were harvested, homogenized in 1.5 ml of potassium phosphate buffer (pH 7.4) and then centrifuged at 14,000 rpm (5 min). […]

As to `CCCCCC=CC[C@@H](O)C=CC=CC=C[C@@H](O)CCCC(=O)O` [LTB4, 5S, 12R-dihydroxy-6,8,10,14-eicosatetraenoic acid, reference compound], on BLTR [1], the “mobilization of intracellular Ca2+” value was “intracellular Ca^2+ was mobilized”. In addition, the “increase in PMN infiltration into skin compared to vehicle control” value worked out at 7.4±0.9 fold in test [2] (hBLTR transgenic mice, n=10) and 3.2±0.5 fold in test [2] (wt mice, n=7).

In the case of `COC(=O)CCC[C@H](O)[C@H](O)C=CC=CC=CC=C[C@H](O)COc1ccccc1` [LXA4 stable analog, 15(S)-16-phenoxy-17,18,19,20-tetranol-LXA4 methyl ester], the “number of PMN whose infiltration was inhibited, hBLTR transgenic relative to wt mice” value in test [2] (MPO activities converted to total number of PMN, 10 μg topical) turned out to be 3 times. In addition, the “percent inhibition of LTB4-induced PMN infiltration” value in test [2] (hBLTR transgenic mice) is around 45%; in test [2] (wt mice), around 37%. For the same molecule, the “effect on PMN infiltration” value in test [2] (hBLTR transgenic mice, 10 μg topical, representative data from n=3) was “clearly able to block PMN infiltration”.

For `CCCCC[C@H](O)/C=C/C=C\C=C\C=C\[C@@H](O)[C@@H](O)CCCC(=O)O` (relative stereo) [LXA4, 5(S), 6(R), 15(S)-trihydroxy-7,9,13-trans-11-cis eicosatetraenoic acid], the “competition with [3H]-LTB4 binding” value at BLTR [3] is “did not compete with [^3H]-LTB4 binding”. The “effect on LTB4-evoked extracellular acidification rate” value in test [4] is “nor did LXA4 or its analogs affect LTB4-evoked extracellular acidification rate”.

Turning to `COC(=O)CCC[C@H](O)[C@H](O)C=CC=CC=CC=C[C@@H](O)COc1ccc(F)cc1` [ATL, 15(R)-16-para-fluoro-phenoxy-17,18,19,20-tetranol-LXA4 methyl ester], the “PMN infiltration into lungs vs vehicle” value in test [5] (10 μg intravenous prior to ischemia-reperfusion, p=0.04, n=3) is listed as “significantly diminished PMN infiltration into lungs”. The “inhibition of PMN infiltration (change)” value in test [5] (intravenous prior to ischemia-reperfusion) is reported as 40-60%.
